Data published in patent US20240285571A1, “METHODS OF TREATING BONE INFECTIONS” (MICROBION CORPORATION, priority 2020, published 2024).
In brackets after ≈: the same amount, converted by molar mass. Like-named read-outs stand apart in the source and are kept apart here.

How the values were obtained:
[1] = system: relevant ATCC QC organisms; conditions: CLSI established QC range, cited from earlier work
S. aureus ATCC 29213 = conditions: per CLSI M100-S24 or provided by Microbion; cited from earlier work
[2] = system: baseline pathogens at the surgical site; test: Phase 2a study: microbiological success / post-baseline microbiology at the index site; format: in vivo, human; conditions: Subject 001-002; Subject 006-003, S. aureus (MRSA); 0.5 μg/cm^2 dose group
Procedure: Microbiology was assessed on Day 1 and at the time of any subsequent surgical procedure at the index site. Samples were collected from the infected bone site or involved tissue adjacent to any implant(s), swabs of the deep infection site, and the superficial tissue/wound closure/sinus tract site. Isolation and identification of aerobic and anerobic bacteria was conducted at a central microbiology laboratory (IHMA, Schaumburg, IL) and susceptibility of the isolates to MBN-101 (BisEDT) and comparator agents was performed per Clinical and Laboratory Standards Institute (CLSI). Parallel sets of samples were analyzed by the local clinical site laboratory to guide patient antibiotic treatment.
Clinical activity of locally administered MBN-101 was assessed by the following: • Proportion of treatment failures. […] Pain intensity at the surgical site was assessed by VAS (0 to 10 scale). • Findings of microbiology evaluations at the surgical site. Microbiologic success was assessed by clearance of infection. • Findings of radiographic evaluations at the surgical site. Radiographic success was assessed by healing on radiologic examination. • Change in serologic markers CRP and ESR at each post-baseline time point. […]

E. coli ATCC 25922 = conditions: per CLSI M100-S24 or provided by Microbion; cited from earlier work
B. fragilis [3] = conditions: B. fragilis MMX 123 (ATCC 25285); cited from earlier work
B. fragilis [4] = test: Agar dilution MIC, anaerobes (Example 5); format: cell-based; conditions: Bacteroides fragilis, ATCC25285; B. fragilis MMX 123 (ATCC 25285); QC; read-out: MIC
C. difficile [5] = conditions: C. difficile MMX 4381 (ATCC 700057); cited from earlier work
C. difficile [6] = test: Agar dilution MIC, anaerobes (Example 5); format: cell-based, Clostridium difficile; conditions: Clostridioides difficile, read-out: MIC
N. gonorrhoeae = N. gonorrhoeae MMX 683 (ATCC 49226); cited from earlier work

C1C[S][Bi]([S]CC[S][Bi]2[S]CC[S]2)[S]1 [BisEDT, bismuth-1,2-ethanedithiol]
MIC QC range (in parentheses) ([1]; E. coli ATCC 25922): (0.5-4)1 μg/mL | MIC QC range (in parentheses) ([1]; P. aeruginosa ATCC 27853): (0.5-4) μg/mL | MIC QC range (in parentheses) ([1]; S. aureus ATCC 29213): (0.12-1) μg/mL | MIC, acceptable range (S. aureus ATCC 29213): 0.13 to 1 mg/L | MIC, expected results (S. aureus ATCC 29213): 0.25 to 0.5 mg/L | Change of BisEDT MIC, baseline vs post-baseline isolates from the same source [2]: unchanged | MIC, acceptable range (E. coli ATCC 25922): 0.5 to 2 mg/L | MIC, expected results (E. coli ATCC 25922): 1 mg/L

Cc1ncc([N+](=O)[O-])n1CCO [Metronidazole]
CLSI QC range of MIC (B. fragilis [3]): (0.25-1) μg/mL | MIC (B. fragilis [4]): 0.5 mg/L (≈ 2.92 µM) | CLSI QC range of MIC (C. difficile [5]): (0.12-0.5) μg/mL | MIC (C. difficile [6]; ATCC700057, C. difficile MMX 4381 (ATCC 700057), QC, CCI): 0.5 mg/L (≈ 2.92 µM) | MIC (C. difficile [6]; C. difficile MMX 8272, ribotype 255, CCI): 0.5 mg/L (≈ 2.92 µM) | MIC (C. difficile [6]; C. difficile MMX 8279, ribotype 005, CCR): 0.5 mg/L (≈ 2.92 µM) | MIC (C. difficile [6]; C. difficile MMX 8281, ribotype 010, CCR): 8 mg/L (≈ 46.7 µM) | MIC (C. difficile [6]; NCTC13307, C. difficile MMX 5681 (NCTC 13307), ribotype 012, CCR): 0.5 mg/L (≈ 2.92 µM) | MIC (C. difficile [6]; NCTC13336, C. difficile MMX 5680 (NCTC 13336), ribotype 027, CCI METR): > 64 mg/L

CO/N=C(\C(=O)N[C@@H]1C(=O)N2C(C(=O)O)=C(CSc3nc(=O)c(=O)[nH]n3C)CS[C@H]12)c1csc(N)n1 [Ceftriaxone]
CLSI QC range of MIC (N. gonorrhoeae): (0.004-0.015) μg/mL
